Values joined by “and” are separate entries in the source; they are usually repeats but may differ in a detail not shown here. Equal entries are not always repeated.
What was measured:
AtPDF [1] = target: T1, AtPDF (Arabidopsis thaliana, UniProt Q9FUZ2); assay: PDF activity assay coupled to formate dehydrogenase (NADH absorbance at 340 nm)
Protocol: (§1) Assay of PDF activity was coupled to formate dehydrogenase, where the absorbance of NADH at 340 nm was measured at 37°C as previously described. […] The kinetics parameters were derived from iterative non-linear least square calculations using the Michaelis-Menten equation based on the experimental data (Sigma-Plot; Kinetics module). […] The data were then calculated according to the method of Henderson, which can be used to determine the dissociation constant of the tight-binding competitive enzyme inhibitor [28],[49],[72] by varying both the inhibitor and substrate concentrations. To determine K I, k 5, and k 6, the reaction was initiated by the addition of enzyme as previously described,[49]. […] From the set of values obtained at various concentrations of I, k5 and k6 could be derived using kobs = k6 + k5[I]/(KI + [I]).
(§2) The enzyme concentration used in the assay was 100 nM.

EcPDF = EcPDF (Escherichia coli, UniProt P0A6K3)
Protocol: as §1

AtPDF variant G41Q [2] = target: AtPDF variant G41Q (Arabidopsis thaliana, UniProt Q9FUZ2, G121Q); assay: PDF activity assay coupled to formate dehydrogenase
Protocol: as §1

AtPDF variant G41M [3] = target: T2, AtPDF variant G41M (Arabidopsis thaliana, UniProt Q9FUZ2, G121M); format: biochemical; conditions: nm = not measurable
T2 construct: Expression and purification of mature Arabidopsis thaliana PDF1B and all variants (i.e., AtPDF); made in house
Protocol: as §1

AtPDF variant I42A = target: T3, AtPDF variant I42A (Arabidopsis thaliana, UniProt Q9FUZ2, I122A); assay: biochemical
T3 construct: Expression and purification of mature Arabidopsis thaliana PDF1B and all variants (i.e., AtPDF); made in house
Protocol: as §1

AtPDF variant I130A = target: T4, AtPDF variant I130A (Arabidopsis thaliana, UniProt Q9FUZ2, I210A); assay: biochemical; conditions: for Ki: 100 nM enzyme
T4 construct: Expression and purification of mature Arabidopsis thaliana PDF1B and all variants (i.e., AtPDF); made in house
Protocol: as §1, §2

AtPDF variant I42F [4] = target: T5, AtPDF variant I42F (Arabidopsis thaliana, UniProt Q9FUZ2, I122F); assay: biochemical; conditions: for Ki: 100 nM enzyme
T5 construct: Expression and purification of mature Arabidopsis thaliana PDF1B and all variants (i.e., AtPDF); made in house
Protocol: as §1, §2

AtPDF variant I42N = target: T6, AtPDF variant I42N (Arabidopsis thaliana, UniProt Q9FUZ2, I122N); assay: biochemical; conditions: for Ki: 100 nM enzyme
T6 construct: Expression and purification of mature Arabidopsis thaliana PDF1B and all variants (i.e., AtPDF); made in house
Protocol: as §1, §2

AtPDF variant I42W [5] = target: T7, AtPDF variant I42W (Arabidopsis thaliana, UniProt Q9FUZ2, I122W); assay: biochemical; conditions: for Ki: 100 nM enzyme
T7 construct: Expression and purification of mature Arabidopsis thaliana PDF1B and all variants (i.e., AtPDF); made in house
Protocol: as §1, §2
Target sequence in this assay (Q9FUZ2 83-273 I122W): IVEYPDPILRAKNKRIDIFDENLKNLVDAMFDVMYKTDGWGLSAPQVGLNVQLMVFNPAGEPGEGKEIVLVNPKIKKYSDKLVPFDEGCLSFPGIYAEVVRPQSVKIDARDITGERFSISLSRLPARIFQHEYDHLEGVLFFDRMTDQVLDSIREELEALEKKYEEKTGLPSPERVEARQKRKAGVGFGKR

AtPDF variant G41M [6] = target: T2, AtPDF variant G41M; assay: Isothermal titration calorimetry (ITC); format: binding
Protocol: (§3) ITC experiments were performed using a VP-ITC isothermal titration calorimeter (Microcal Corp.). Experiments were performed at 37°C. […] A theoretical titration curve was fitted to the experimental data using the ORIGIN software (Microcal). This software uses the relationship between the heat generated after each injection and ΔH° (enthalpy change in kcal/mol), K A (the association binding constant in M^−1), n (number of binding sites per monomer), total protein concentration, and free and total ligand concentrations. The thermal stability of the WT and variants of Ni-AtPDF1B was studied by DSC using VP-DSC calorimetry (Microcal Corp.). DSC measurements were made with 10 µM protein solutions in buffer C. […] The same buffer was used as a reference. All solutions were degassed just before loading into the calorimeter. Scanning was performed at 1°C/min. The temperature dependence of the partial molar capacity (Cp) was expressed in kcal/K after subtracting the buffer signal using Origin(R) software.
(§4) The volume of each reaction was 10 µl, and injections were made at 240 s intervals. Top, raw data from the titration. Each peak corresponds to the injection. Bottom, the peaks in the upper panel were integrated with ORIGIN software and the values were plotted versus injection number. Each point corresponds to the heat in µcal generated by the reaction upon each injection. The solid line is the curve fit to the data by the Origin program. This fit yields values for K d. Experiments were done with wild type protein and others variants, and gave similar raw data and curve fit. (A) WT; (B) variant G41M; (C) variant I42W. (EPS) Click here for additional data file.

AtPDF variant I42F [7] = target: T5, AtPDF variant I42F; assay: Isothermal titration calorimetry (ITC); format: binding
Protocol: as §3, §4

AtPDF variant I42W [8] = target: T7, AtPDF variant I42W; assay: Isothermal titration calorimetry (ITC); format: binding
Protocol: as §3, §4
Target sequence in this assay (Q9FUZ2 57-273 I122W): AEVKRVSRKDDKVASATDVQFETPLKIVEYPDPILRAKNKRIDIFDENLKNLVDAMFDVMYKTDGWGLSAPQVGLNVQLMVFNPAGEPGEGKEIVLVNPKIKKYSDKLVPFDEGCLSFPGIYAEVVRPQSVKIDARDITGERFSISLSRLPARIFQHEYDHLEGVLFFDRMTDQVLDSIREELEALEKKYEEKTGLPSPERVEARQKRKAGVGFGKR

AtPDF variant G41M [9] = target: T2, AtPDF variant G41M; assay: Differential scanning calorimetry (DSC), thermal stability; format: binding
Protocol: as §3

AtPDF variant G41Q [10] = tested on: T8, AtPDF variant G41Q; assay: as above; format: binding, Arabidopsis thaliana
T8 construct: Expression and purification of mature Arabidopsis thaliana PDF1B and all variants (i.e., AtPDF); made in house
Protocol: as §3

[11] = tested on: almost all of the AtPDF variants; assay: as above; format: binding, Arabidopsis thaliana
Protocol: as §3

[12] = tested on: AtPDF wild-type (WT) and G41M and G41Q; assay: ΔΔGbinding calculated from Kd values; set-up: species or system Arabidopsis thaliana; conditions: calculated from the K d values for actinonin binding to WT and G41M and G41Q
Protocol: The percentage of the distance required to make a hydrogen bond (2.8 Å) is reported (dark squares). […] The values were calculated as follows. For the WT, it corresponds to the RT ln(KI*/KI) value, where R is the ideal gas constant and T is the temperature in Kelvin. RT is 0.616 kcal.mol^−1 at 37°C. For the G41M and G41Q variants, the ΔΔGbinding corresponds to RT ln(KI-G41variant/KD-WT). The obtained values are similar to that obtained if the kcat/Km substitutes the KD value in the calculation (ΔΔGbinding = RT ln(kcat/Km –G41variant/kcat/Km –WT). (EPS) Click here for additional data file.

AtPDF [13] = target: T1, AtPDF; assay: Isothermal titration calorimetry (ITC); format: binding; set-up: Expression and purification of mature Arabidopsis thaliana PDF1B and all variants (i.e., AtPDF); made in house; conditions: WT; from ITC (value in parentheses); 37°C
Protocol: as §3
The volume of each reaction was 10 µl, and injections were made at 240 s intervals. Top, raw data from the titration. Each peak corresponds to the injection. Bottom, the peaks in the upper panel were integrated with ORIGIN software and the values were plotted versus injection number. Each point corresponds to the heat in µcal generated by the reaction upon each injection. […]

AtPDF [14] = target: T1, AtPDF; assay: Differential scanning calorimetry (DSC), thermal stability; format: binding; set-up: Expression and purification of mature Arabidopsis thaliana PDF1B and all variants (i.e., AtPDF); made in house; conditions: 10 µM protein, 20 µM actinonin; free enzyme 61°C
Protocol: as §3

[15] = tested on: CSCC[C@H](NC=O)C(=O)N[C@@H](C)C(=O)N[C@@H](CO)C(=O)O; assay: purified protein, by the assay type; conditions: other: G41Q, substrate Fo-Met-Ala-Ser, 100 nM enzyme, 750 µM NiCl2, 37°C
Protocol: The kinetics parameters were derived from iterative non-linear least square calculations using the Michaelis-Menten equation based on the experimental data (Sigma-Plot; Kinetics module). […] The data were then calculated according to the method of Henderson, which can be used to determine the dissociation constant of the tight-binding competitive enzyme inhibitor [28],[49],[72] by varying both the inhibitor and substrate concentrations. To determine K I, k 5, and k 6, the reaction was initiated by the addition of enzyme as previously described [29],[49]. […] From the set of values obtained at various concentrations of I, k5 and k6 could be derived using kobs = k6 + k5[I]/(KI + [I]).

[16] = substrate: CSCC[C@H](NC=O)C(=O)N[C@@H](C)C(=O)N[C@@H](CO)C(=O)O; assay: purified protein, by the assay type; conditions: other: WT, substrate Fo-Met-Ala-Ser, 100 nM enzyme, 750 µM NiCl2, 37°C
Protocol: Assay of PDF activity was coupled to formate dehydrogenase, where the absorbance of NADH at 340 nm was measured at 37°C as previously described [71]. […] The kinetics parameters were derived from iterative non-linear least square calculations using the Michaelis-Menten equation based on the experimental data (Sigma-Plot; Kinetics module). […] The data were then calculated according to the method of Henderson, which can be used to determine the dissociation constant of the tight-binding competitive enzyme inhibitor [28],[49],[72] by varying both the inhibitor and substrate concentrations. To determine K I, k 5, and k 6, the reaction was initiated by the addition of enzyme as previously described [29],[49]. […] From the set of values obtained at various concentrations of I, k5 and k6 could be derived using kobs = k6 + k5[I]/(KI + [I]).

[17] = value is k5 multiplied by 10^3, no preincubation
[18] = value is k6 multiplied by 10^4, no preincubation
[19] = KI*app, 2 mM substrate, actinonin preincubated 10 min at 37°C
[20] = KI, no preincubation, started by adding enzyme

T6 sequence (Q9FUZ2 57-273 I122N): as the sequence (Q9FUZ2 57-273 I122W) above, with W66N counted along it
EcPDF, sequence (P0A6K3 whole entry): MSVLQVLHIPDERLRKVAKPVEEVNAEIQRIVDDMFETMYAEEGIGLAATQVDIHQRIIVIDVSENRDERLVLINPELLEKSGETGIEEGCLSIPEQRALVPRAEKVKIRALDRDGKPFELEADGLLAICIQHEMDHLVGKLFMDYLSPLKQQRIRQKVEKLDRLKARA
T5 sequence (Q9FUZ2 57-273 I122F): as the sequence (Q9FUZ2 57-273 I122W) above, with W66F counted along it
T2 sequence (Q9FUZ2 57-273 G121M): as the sequence (Q9FUZ2 57-273 I122W) above, with G65M, W66I counted along it
T4 sequence (Q9FUZ2 57-273 I210A): as the sequence (Q9FUZ2 57-273 I122W) above, with W66I, I154A counted along it
AtPDF variant G41Q (Arabidopsis thaliana, UniProt Q9FUZ2, G121Q), sequence (Q9FUZ2 83-273 G121Q): as the sequence (Q9FUZ2 83-273 I122W) above, with G39Q, W40I counted along it
T3 sequence (Q9FUZ2 57-273 I122A): as the sequence (Q9FUZ2 57-273 I122W) above, with W66A counted along it

Molecule: CCCCC[C@H](CC(=O)NO)C(=O)N[C@H](C(=O)N1CCC[C@H]1CO)C(C)C [actinonin]
- Kd (AtPDF [1]): 0.9 nM
- Ki (AtPDF [1]; K I*, enzyme 100 nM, actinonin preincubated with enzyme 10 min at 37°C, assay initiated by substrate): 0.9 ± 0.5 nM
- Ki (AtPDF [1]; KI*app, Wild-type, 100 nM enzyme, 2 mM substrate, actinonin preincubated 10 min at 37°C): 2.3 ± 0.3 nM
- binding free energy difference between the two complexes (AtPDF [1]; WT, RT ln(KI*/KI), 37°C): 3.1 kcal/mol
- k6 (s^-1) x 10^4 (AtPDF [1]; Wild-type, Table S3 (with KI*app), value is k6 multiplied by 10^4): 10 ± 1 s^-1 x 10^4
- k4, dissociation of the primary enzyme-actinonin complex (AtPDF [1]; assumes k3 = 10^9 M−1.s^−1 (diffusion-limited)): 140 s⁻¹ and 140 ± 10 s⁻¹
- k 5 (s^−1) ×10^3 (AtPDF [1]; [17]): 63±9 s^−1 ×10^3 and 63 ± 6 s^−1 ×10^3
- k 6 (s^−1) ×10^4 (AtPDF [1]; [18]): 4±1 s^−1 ×10^4
- k4, dissociation of the primary enzyme-actinonin complex (EcPDF; assumes k3 = 10^9 M−1.s^−1): 112 ± 10 s⁻¹
- k 5 (s^−1) ×10^3 (EcPDF; [17]): 170±20 s^−1 ×10^3
- k 6 (s^−1) ×10^4 (EcPDF; [18]): 19±2 s^−1 ×10^4
- Kd (AtPDF variant G41Q [2]): 48 nM
- KI*app (AtPDF variant G41Q [2]; G41Q, nm = not measurable): nM
- KI*app (AtPDF variant G41M [3]): nM
- Kd (AtPDF variant I42A): 3 nM
- Ki (AtPDF variant I130A; [19]): 1.5 ± 0.4 nM
- Ki (AtPDF variant I130A; [20]): 36 ± 5 nM
- k5 (s^-1) x 10^3 (AtPDF variant I130A; value is k5 multiplied by 10^3): 49 ± 5 s^-1 x 10^3
- k6 (s^-1) x 10^4 (AtPDF variant I130A; value is k6 multiplied by 10^4): 21 ± 2 s^-1 x 10^4
- Kd (AtPDF variant I42F [4]): 2.8 nM
- k5 (s^-1) x 10^3 (AtPDF variant I42F [4]; I42F, value is k5 multiplied by 10^3): 89 ± 9 s^-1 x 10^3
- k6 (s^-1) x 10^4 (AtPDF variant I42F [4]; I42F, value is k6 multiplied by 10^4): 62 ± 6 s^-1 x 10^4
- Ki (AtPDF variant I42F [4]; KI*app, I42F, 2 mM substrate, actinonin preincubated 10 min at 37°C): 2.8 ± 0.2 nM
- Ki (AtPDF variant I42F [4]; KI, I42F, no preincubation, started by adding enzyme): 43 ± 5 nM
- Kd (AtPDF variant I42N): 6.3 nM
- k5 (s^-1) x 10^3 (AtPDF variant I42N; I42N, value is k5 multiplied by 10^3): 52 ± 5 s^-1 x 10^3
- k6 (s^-1) x 10^4 (AtPDF variant I42N; I42N, value is k6 multiplied by 10^4): 101 ± 10 s^-1 x 10^4
- Ki (AtPDF variant I42N; KI*app, I42N, 2 mM substrate, actinonin preincubated 10 min at 37°C): 6.3 ± 0.4 nM
- Ki (AtPDF variant I42N; KI, I42N, no preincubation, started by adding enzyme): 39 ± 4 nM
- Ki (AtPDF variant I42W [5]; [19]): 2.8 ± 0.4 nM
- Ki (AtPDF variant I42W [5]; [20]): 97 ± 6 nM
- k5 (s^-1) x 10^3 (AtPDF variant I42W [5]; value is k5 multiplied by 10^3): 52 ± 5 s^-1 x 10^3
- k6 (s^-1) x 10^4 (AtPDF variant I42W [5]; value is k6 multiplied by 10^4): 16 ± 2 s^-1 x 10^4
- Kd (AtPDF variant G41M [6]): 32 nM
- Kd (AtPDF variant I42F [7]): 3.6 nM
- Kd (AtPDF variant I42W [8]): 3.7 nM
- increase in the T m by actinonin (AtPDF variant G41M [9]): 12 °C
- increase in the T m by actinonin (AtPDF variant G41Q [10]): 12 °C
- increase of T m by actinonin [11]: more than 20 °C
- ΔΔGbinding [12]: 2.2 to 2.4 kcal/mol
- Kd (AtPDF [13]): 4.5 nM
- T m of AtPDF upon binding of the inhibitor (AtPDF [14]): 81 °C

Molecule: AtPDF variant G41Q (Arabidopsis thaliana; G121Q)
- Km [15]: 6.7 ± 1.7 mM
- kcat [15]: 0.14 ± 0.02 s⁻¹
- kcat/Km [15]: 20 ± 10 M⁻¹ s⁻¹

B1: AtPDF (Arabidopsis thaliana) (protein)
chain: AEVKRVSRKDDKVASATDVQFETPLKIVEYPDPILRAKNKRIDIFDENLKNLVDAMFDVMYKTDGIGLSAPQVGLNVQLMVFNPAGEPGEGKEIVLVNPKIKKYSDKLVPFDEGCLSFPGIYAEVVRPQSVKIDARDITGERFSISLSRLPARIFQHEYDHLEGVLFFDRMTDQVLDSIREELEALEKKYEEKTGLPSPERVEARQKRKAGVGFGKR
- Km [16]: 6.5 ± 0.7 mM
- kcat [16]: 37 ± 2 s⁻¹
- kcat/Km [16]: 5700 ± 600 M⁻¹ s⁻¹

— paper PMC3101196, “Trapping Conformational States Along Ligand-Binding Dynamics of Peptide Deformylase: The Impact of Induced Fit on Enzyme Catalysis” (PLoS Biology, 2011)
